Legend:
[1] = system: Pseudocercosporella herpotrichoides; assay: In vitro fungicidal activity, growth inhibition of ground fungal mycelia (PSDCHE); assay type: cell-based; conditions: Oculimacula yallundae, 3-4 days at 21° C., averaged when more than one test, read-out: Growth inhibition rating, PSDCHE (converted)
Procedure: (§1) Test compounds are dissolved or suspended in acetone and dispersed into cell well plates containing a suspension of ground fungal mycelia in a nutrient broth. Assay plates are incubated for 3-4 days at 21° C. Growth inhibition is measured visually and is rated using the following scale:
(§2) Assay fungi include the plant pathogens, Pythium ultimum (Pythul); Rhizoctonia solani (Rhizso); Fusarium oxysporum f. sp. cucumerinum (Fusoxc); and Pseudocercosporella herpotrichoides (Psdche).
(§3) When more than one test is run, the data are averaged.

Venturia inaegualis = assay: In vivo fungicidal activity on host plants, Apple Scab (AS); conditions: 400 ppm; sprayed on host plants before inoculation
Cercospora beticola = assay: In vivo fungicidal activity on host plants, Sugar Beet Cercospora (SBC); conditions: 400 ppm; sprayed on host plants before inoculation; also: ranges in brackets are in %
Pythium ultimum = assay: In vitro fungicidal activity, growth inhibition of ground fungal mycelia (PYTHUL); assay type: cell-based; conditions: Globisporangium ultimum, 3-4 days at 21° C., averaged when more than one test, read-out: Growth inhibition rating, PYTHUL (converted)
Procedure: as §1, §2, §3

Rhizoctonia solani = assay: In vitro fungicidal activity, growth inhibition of ground fungal mycelia (RHIZSO); assay type: cell-based; conditions: 3-4 days at 21° C., averaged when more than one test, read-out: Growth inhibition rating, RHIZSO
Procedure: as §1, §2, §3

Pyricularia oryzae = assay type: in vivo; conditions: 400 ppm; sprayed on host plants before inoculation
Botrytis cinerea = assay: In vivo fungicidal activity on host plants, Pepper Botrytis (PB); conditions: 400 ppm; sprayed on host plants before inoculation
[2] = system: Erysiphe graminis f. sp. tritici; assay: In vivo fungicidal activity on host plants, Wheat Powdery Mildew (WPM); conditions: 400 ppm; sprayed on host plants before inoculation
[3] = system: Puccinia recondita f. sp. tritici; assay: In vivo fungicidal activity on host plants, Wheat Leaf Rust (WLR); conditions: 400 ppm; sprayed on host plants before inoculation
Plasmopara viticola = assay: In vivo fungicidal activity on host plants, Grape Downy Mildew (GDM); conditions: 400 ppm; sprayed on host plants before inoculation
[4] = system: Fusarium oxysporum f. sp. cucumerinum; assay: In vitro fungicidal activity, growth inhibition of ground fungal mycelia (FUSOXC); assay type: cell-based; conditions: 25 ppm, 3-4 days at 21° C., averaged when more than one test, read-out: Growth inhibition rating, FUSOXC
Procedure: as §1, §2, §3

SMILES | inhibition at 25 ppm [1] [%] | Disease control rating, AS (Venturia inaegualis) | Disease control rating, SBC (Cercospora beticola) | inhibition at 25 ppm (Pythium ultimum) [%] | inhibition at 25 ppm (Rhizoctonia solani) [%] | Disease control rating, RB (Pyricularia oryzae) | Disease control rating, PB (Botrytis cinerea) | Disease control rating, WPM [2] | Disease control rating, WLR [3] | Disease control rating, GDM (Plasmopara viticola) | inhibition at 25 ppm [4] [%]
N#Cc1c(-c2oc3ccccc3c2Cl)[nH]c(Cl)c1Cl [Compound 1, 4,5-Dichloro-2-(3-chloro-2-benzofuranyl)pyrrole-3-carbonitrile] | 1 to 29 | 0 (0) | 0 (0) | 1 to 29 | 1 to 29 | 4 (45-59) | 2 (15-29) | 0 (0) | 2 (15-29) | – | –
FC(F)(F)c1[nH]c(-c2ccc(Cl)cc2)cc1-c1ccco1 [Compound 4, 5-(p-Chlorophenyl)-3-(2-furyl)-2-(trifluoromethyl)pyrrole] | 100 | 2 (15-29) | 0 (0) | 60 to 89 | – | 1 (1-14) | 0 (0) | 0 (0) | 6 (75-89) | 8 (96-99) | –
N#Cc1cc(-c2ccc(Cl)s2)[nH]c1Cl [Compound 6, 2-Chloro-5-(5-chloro-2-thienyl)pyrrole-3-carbonitrile] | 60 to 89 | 9 (100) | 6 (75-89) | – | 60 to 89 | 0 (0) | 0 (0) | 0 (0) | 6 (75-89) | 7 (90-95) | –
N#Cc1c(Cl)[nH]c(-c2ccc(Cl)s2)c1Br [Compound 7, 4-Bromo-2-chloro-5-(5-chloro-2-thienyl)pyrrole-3-carbonitrile] | – | 8 (96-99) | 0 (0) | – | 60 to 89 | 0 (0) | 0 (0) | 0 (0) | 7 (90-95) | 0 (0) | 0
FC(F)(F)c1[nH]c(-c2ccc(Cl)cc2)cc1-c1csc(Br)c1 [Compound 9, 3-(5-Bromo-3-thienyl)-5-(p-chlorophenyl)-2-(trifluoromethyl)pyrrole] | 0 | 0 (0) | 0 (0) | 0 | 60 to 89 | 0 (0) | 0 (0) | 0 (0) | 0 (0) | 6 (75-89) | 0

Reference: patent US5480902A, “Thienylpyrrole fungicidal agents” (American Cyanamid Company, priority 1993, dated 1996)
